For test [1], the system named is Erysiphe [syn. Blumeria] graminis forma specialis. tritici. Briefly: Activity against mildew of wheat (Erysgt P1). It is filed as in vivo, Erysiphe graminis f. sp. tritici on wheat seedlings. The conditions noted are these: sprayed 24 hours before inoculation, assessed after 7 days. How it is done:
The active compounds were prepared separately or jointly as a stock solution with 25 mg of active compound which was made up to 10 ml using a mixture of acetone and/or DMSO and the emulsifier Uniperol® EL (wetting agent having emulsifying and dispersing action based on ethoxylated alkylphenols) in a volume ratio of solvent/emulsifier of 99 to 1. The mixture was then made up to 100 ml with water. This stock solution was diluted with the solvent/emulsifier/water mixture described to the concentration of active compounds stated below.
The visually determined percentages of infected leaf areas or the measured elongation were converted into efficacies in % of the untreated control:
The efficacy (E) is calculated as follows using Abbot's formula: […]
The expected efficacies of mixtures of active compounds were determined using Colby's formula (Colby, S. R. “Calculating synergistic and antagonistic responses of herbicide combinations”, Weeds, 15, pp. 20-22, 1967) and compared with the observed efficacies.
Use Example 2—Activity against mildew of wheat caused by Erysiphe [syn. Blumeria] graminis forma specialis. tritici (Erysgt P1)
Leaves of potted wheat seedlings were sprayed to run off point with an aqueous suspension having the active compound concentrations stated below. The suspension or emulsion had been prepared as described above. 24 hours after the spray coating had dried on, the plants were dusted with spores of mildew of wheat (Erysiphe [syn. Blumeria] graminis forma specialis. tritici). The test plants were then placed in a greenhouse at temperatures between 20 and 24° C. and at 60 to 90% relative atmospheric humidity. After 7 days, the extent of the mildew development was determined visually in % infection of the entire leaf area.
The visually determined values for the percentage of infected leaf area were initially converted into a mean value and then converted into efficacies in % of the untreated control. An efficacy of 0 means the same degree of infection as in the untreated control, an efficacy of 100 means 0% infection. The expected efficacies for active compound combinations were determined using Colby's formula (Colby, S. R. “Calculating synergistic and antagonistic responses of herbicide Combinations”, Weeds, 15, pp. 20-22, 1967) and compared to the observed efficacies.

Test [2] relates to Puccinia recondita. Briefly: Curative activity against brown rust of wheat (Puccrt K1). It is filed as in vivo, Puccinia recondita on wheat seedlings cultivar Kanzler. The conditions noted are these: sprayed 1 day after inoculation, assessed after 7 days. As for the experimental part:
The active compounds were prepared separately or jointly as a stock solution with 25 mg of active compound which was made up to 10 ml using a mixture of acetone and/or DMSO and the emulsifier Uniperol® EL (wetting agent having emulsifying and dispersing action based on ethoxylated alkylphenols) in a volume ratio of solvent/emulsifier of 99 to 1. The mixture was then made up to 100 ml with water. This stock solution was diluted with the solvent/emulsifier/water mixture described to the concentration of active compounds stated below. […] The expected efficacies of mixtures of active compounds were determined using Colby's formula (Colby, S. R. “Calculating synergistic and antagonistic responses of herbicide combinations”, Weeds, 15, pp. 20-22, 1967) and compared with the observed efficacies. E=x+y−x×y/100 Use Example 1—Curative activity against brown rust of wheat caused by Puccinia recondita (Puccrt K1) Leaves of potted wheat seedlings of the cultivar “Kanzler” were inoculated with a spore suspension of brown rust (Puccinia recondita). The pots were then placed in a chamber with high atmospheric humidity (90 to 95%) at 20 to 22° C. for 24 hours. During this time, the spores germinated and the germ tubes penetrated into the leaf tissue. The next day, the infected plants were sprayed to run off point with the active compound solution described above at the active compound concentration stated below. […] The extent of the rust fungus development on the leaves was then determined. The visually determined values for the percentage of infected leaf area were initially converted into a mean value and then converted into efficacies in % of the untreated control. […] The expected efficacies for active compound combinations were determined using Colby's formula (Colby, S. R. “Calculating synergistic and antagonistic responses of herbicide Combinations”, Weeds, 15, pp. 20-22, 1967) and compared to the observed efficacies. […]

Setting [3] is: Conc. 1 mg/ml, efficacy in % of untreated control.

For `CCC(=O)C1=C([O-])CC(C(=O)[O-])CC1=O.[Ca+2]` (stereo not shown) [Prohexadione-Ca, prohexadione-calcium], the Observed activity in test [1] (Conc. 0.25 mg/ml), in test [1] (setting [3]), in test [2] (Conc. 0.06 mg/ml) and in test [2] (Conc. 1 mg/ml) was 0% throughout.

`Fc1ccc(C2(Cn3cncn3)OC2c2ccccc2Cl)cc1` (stereo not shown) [Epoxiconazole, epoxiconazole]: the Observed activity in test [1] (Conc. 0.25 mg/ml) was 0%; in test [1] (setting [3]), 33%; in test [2] (Conc. 0.25 mg/ml, efficacy in % of untreated control), 11%.

Source of the values: US20090144861A1, “Fungicides and Bioregulatory Mixtures” (BASF Aktiengesellschaft, priority 2005, published 2009).
